ChEMBL document CHEMBL1155351, “Synthesis and evaluation of novel tricyclic benzo[4.5]cyclohepta[1.2]pyridine derivatives as NMDA/NR2B antagonists” (Bioorg Med Chem Lett, 2009)

Columns and labels:
[1] = biological target: Voltage-gated inwardly rectifying potassium channel KCNH2 (Homo sapiens, UniProt Q12809); test: Displacement of [35S]MK499 from human ERG expressed in HEK293 cells; assay type: cell-based; conditions: for IC50: read-out: IP
[2] = Displacement of [3H](E)-N1-(2-methoxybenzyl)-cinnamamidine from human recombinant N-methyl-D-aspartate receptor subunit NR1a/N-methyl D-aspartate receptor subtype 2B expressed in mouse Ltk cells by radioligand binding assay
Homo sapiens = species: Homo sapiens; test: Selectivity ratio of Ki for human NR2B to IP for human ERG
[3] = biological target: Glutamate receptor ionotropic, NMDA 2B (Homo sapiens, UniProt Q13224); test: Antagonistic activity against NR2B receptor expressed in mouse Ltk cells assessed as inhibition of calcium influx by FLIPR assay; assay type: functional, cell-based
Sequence of Glutamate receptor ionotropic, NMDA 2B (Q13224 whole entry): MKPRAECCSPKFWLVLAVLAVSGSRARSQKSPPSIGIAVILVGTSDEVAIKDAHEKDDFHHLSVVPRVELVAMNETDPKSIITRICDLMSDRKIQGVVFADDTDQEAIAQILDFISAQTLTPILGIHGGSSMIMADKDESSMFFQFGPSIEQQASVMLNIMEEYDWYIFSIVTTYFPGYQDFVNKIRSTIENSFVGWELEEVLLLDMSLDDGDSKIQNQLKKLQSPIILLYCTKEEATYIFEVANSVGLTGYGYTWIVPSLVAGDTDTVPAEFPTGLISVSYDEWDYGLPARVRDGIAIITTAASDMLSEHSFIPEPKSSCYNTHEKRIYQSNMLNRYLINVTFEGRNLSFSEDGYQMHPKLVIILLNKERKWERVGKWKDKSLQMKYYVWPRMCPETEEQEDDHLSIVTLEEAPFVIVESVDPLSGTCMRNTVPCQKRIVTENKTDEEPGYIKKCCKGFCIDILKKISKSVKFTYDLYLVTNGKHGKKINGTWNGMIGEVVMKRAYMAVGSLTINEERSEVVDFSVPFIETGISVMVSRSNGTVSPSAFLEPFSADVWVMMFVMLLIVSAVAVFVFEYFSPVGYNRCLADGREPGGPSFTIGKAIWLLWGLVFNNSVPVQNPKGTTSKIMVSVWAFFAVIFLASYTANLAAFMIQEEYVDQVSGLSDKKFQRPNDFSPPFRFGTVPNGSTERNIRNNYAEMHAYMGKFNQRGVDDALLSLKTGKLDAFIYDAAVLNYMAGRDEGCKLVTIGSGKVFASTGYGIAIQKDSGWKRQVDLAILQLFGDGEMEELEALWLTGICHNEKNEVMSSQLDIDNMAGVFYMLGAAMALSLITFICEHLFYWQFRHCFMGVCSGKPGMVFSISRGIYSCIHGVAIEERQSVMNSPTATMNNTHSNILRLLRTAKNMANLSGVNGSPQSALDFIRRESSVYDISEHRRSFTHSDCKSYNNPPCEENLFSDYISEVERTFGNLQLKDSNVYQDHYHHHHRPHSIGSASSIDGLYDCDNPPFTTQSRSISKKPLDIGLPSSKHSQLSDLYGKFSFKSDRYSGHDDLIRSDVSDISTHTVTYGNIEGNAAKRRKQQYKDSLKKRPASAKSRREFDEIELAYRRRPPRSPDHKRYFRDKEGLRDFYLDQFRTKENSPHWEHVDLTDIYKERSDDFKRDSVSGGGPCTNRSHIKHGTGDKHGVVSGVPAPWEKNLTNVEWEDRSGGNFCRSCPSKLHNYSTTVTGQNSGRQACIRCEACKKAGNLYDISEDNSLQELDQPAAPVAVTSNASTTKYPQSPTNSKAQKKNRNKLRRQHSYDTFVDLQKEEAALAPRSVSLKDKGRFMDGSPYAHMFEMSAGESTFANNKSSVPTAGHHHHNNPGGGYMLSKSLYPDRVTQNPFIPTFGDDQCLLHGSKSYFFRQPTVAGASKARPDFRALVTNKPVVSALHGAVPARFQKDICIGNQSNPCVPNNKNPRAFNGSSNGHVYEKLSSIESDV

[4] = Binding affinity to alpha1 adrenergic receptor

Sequence of Voltage-gated inwardly rectifying potassium channel KCNH2 (Q12809 whole entry): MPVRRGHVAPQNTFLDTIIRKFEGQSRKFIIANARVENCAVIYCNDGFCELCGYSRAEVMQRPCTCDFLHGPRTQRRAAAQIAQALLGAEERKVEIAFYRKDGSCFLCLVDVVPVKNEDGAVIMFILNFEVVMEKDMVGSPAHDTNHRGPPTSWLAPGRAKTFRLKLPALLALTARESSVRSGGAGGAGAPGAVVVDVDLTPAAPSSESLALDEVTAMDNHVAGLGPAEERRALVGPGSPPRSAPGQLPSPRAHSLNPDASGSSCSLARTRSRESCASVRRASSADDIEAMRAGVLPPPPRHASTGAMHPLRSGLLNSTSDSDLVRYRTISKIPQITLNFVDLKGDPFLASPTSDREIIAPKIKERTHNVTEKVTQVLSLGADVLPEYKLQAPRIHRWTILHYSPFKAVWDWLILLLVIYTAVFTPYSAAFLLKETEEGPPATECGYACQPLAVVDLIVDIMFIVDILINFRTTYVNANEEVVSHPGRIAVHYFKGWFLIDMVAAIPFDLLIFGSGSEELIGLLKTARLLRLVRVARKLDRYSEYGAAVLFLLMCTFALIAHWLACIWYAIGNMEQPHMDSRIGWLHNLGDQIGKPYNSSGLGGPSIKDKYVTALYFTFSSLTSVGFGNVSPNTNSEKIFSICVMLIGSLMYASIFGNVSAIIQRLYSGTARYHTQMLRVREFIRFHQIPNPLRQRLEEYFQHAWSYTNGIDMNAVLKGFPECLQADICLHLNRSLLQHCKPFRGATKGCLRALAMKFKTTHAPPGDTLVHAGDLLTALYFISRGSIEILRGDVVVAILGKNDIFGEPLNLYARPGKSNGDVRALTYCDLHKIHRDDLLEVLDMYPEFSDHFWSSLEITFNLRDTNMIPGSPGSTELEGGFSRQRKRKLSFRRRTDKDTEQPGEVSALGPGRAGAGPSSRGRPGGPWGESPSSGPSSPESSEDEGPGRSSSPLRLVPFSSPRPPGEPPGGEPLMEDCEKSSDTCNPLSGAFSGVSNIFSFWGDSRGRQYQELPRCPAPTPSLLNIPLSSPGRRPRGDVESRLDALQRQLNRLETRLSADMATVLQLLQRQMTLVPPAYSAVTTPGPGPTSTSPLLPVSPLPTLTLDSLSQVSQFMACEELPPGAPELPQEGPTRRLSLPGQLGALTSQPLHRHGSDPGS

Ratio (Homo sapiens) | IC50 [3] [nM] | Ki [4] [nM] | SMILES | IC50 [1] [nM] | Ki [2] [nM] | Ki [1] [nM]
 |  |  | Cc1ccc(-c2cnc3c(c2)C(O)c2cccc(C#N)c2C=C3)cc1 (centres undefined) | 1700 | 10 | 
 |  |  | N#Cc1cccc2c1CCc1ncc(-c3ccccc3)cc1C2 | 154 | 77 | 
 |  |  | N#Cc1cccc2c1C=Cc1ncc(N3CCCCCC3)cc1C2O (centres undefined) | 3000 | 428 | 
1000 |  |  | N#Cc1cccc2c1C=Cc1ncc(N3CCCCC3)cc1C2O (single isomer, unassigned; (-)) [listing 1 of 2 here] |  |  | 
 |  |  | N#Cc1cccc2c1C(=O)Nc1ncc(-c3ccccc3)cc1C2 |  | 19 | 431
 |  |  | CC(=O)OC1c2cc(-c3ccccc3)cnc2C=Cc2c(C#N)cccc21 (centres undefined) | 653 | 10 | 
 |  |  | N#Cc1cccc2c1C=Cc1ncc(-c3ccc(F)cc3)cc1C2O (centres undefined) | 512 | 3 | 
 |  |  | Cc1cccc(-c2cnc3c(c2)C(O)c2cccc(C#N)c2C=C3)c1 (centres undefined) | 1100 | 4 | 
 |  |  | N#Cc1cccc2c1C=Cc1ncc(-c3ccccc3)cc1C2O (racemic) | 5100 | 2 | 
 |  |  | N#Cc1cccc2c1C=Cc1ncc(N3CCCC3)cc1C2O (centres undefined) | 15500 | 720 | 
 | 27 | > 21000 | N#Cc1cccc2c1C=Cc1ncc(N3CCCCC3)cc1C2O (single isomer, unassigned; (-)) [listing 2 of 2 here] | 20000 | 17 | 
 | 9 | 5000 | N#Cc1cccc2c1C=Cc1ncc(-c3ccccc3)cc1C2O (single isomer, unassigned; (-)) | 590 | 1 | 
 |  |  | N#Cc1cccc2c(=O)c3cc(-c4ccccc4)cnc3ccc12 | 882 | 1000 | 
 |  |  | N#Cc1cccc2c1C=Cc1ncc(N3CCOCC3)cc1C2O (centres undefined) | 20000 | 196 | 
 |  |  | N#Cc1cccc2c1CCc1ncc(-c3ccccc3)cc1C2O (centres undefined) | 3560 | 56 | 
 |  |  | N#Cc1cccc2c1C=Cc1ncc(N3CCCCC3)cc1C2O (racemic) | 10000 | 43 | 
 |  |  | Cc1ccccc1-c1cnc2c(c1)C(O)c1cccc(C#N)c1C=C2 (centres undefined) | 1350 | 6 | 
 |  |  | CC1CCN(c2cnc3c(c2)C(O)c2cccc(C#N)c2C=C3)CC1 (centres undefined) | 5300 | 83 | 
 |  |  | N#Cc1cccc2c1C=Cc1ncc(-c3ccccc3)cc1C2O (single isomer, unassigned; (+)) | 10000 | 540 | 
 |  |  | N#Cc1cccc2c1C=Cc1ncc(-c3cccc(F)c3)cc1C2O (centres undefined) | 4970 | 23 | 
 |  |  | CN1CCN(c2cnc3c(c2)C(O)c2cccc(C#N)c2C=C3)CC1 (centres undefined) | 42000 | > 16000 | 
 |  |  | COC1c2cc(-c3ccccc3)cnc2C=Cc2c(C#N)cccc21 (centres undefined) | 660 | 4800 | 
 |  |  | N#Cc1cccc2c1C=Cc1ncc(-c3ccccc3)cc1C2 | 65 | 2 | 
 |  |  | N#Cc1cccc2c1C=Cc1ncc(-c3ccccc3F)cc1C2O (centres undefined) | 4440 | 16 | 
 |  |  | COc1ccc(-c2cnc3c(c2)C(O)c2cccc(C#N)c2C=C3)cc1 (centres undefined) | 1610 | 8 | 
 |  |  | COc1cccc(-c2cnc3c(c2)C(O)c2cccc(C#N)c2C=C3)c1 (centres undefined) | 1530 | 9 | 
 |  |  | COc1ccccc1-c1cnc2c(c1)C(O)c1cccc(C#N)c1C=C2 (centres undefined) | 5450 | 13 | 
 |  |  | N#Cc1cccc2c1C=Cc1ncc(N3CCCCC3)cc1C2O (single isomer, unassigned; (+)) | 20000 | 35000 | 
